# Where a SMILES comes first, the peptide text is derived from it. [ ]: non-standard residue; d: D form. The star is where a group is joined. ξ: configuration not given here. ξGly(4-Pip(1-amidino)) = N=C(N)N1CCC(C(N)C(=O)O)CC1; ξGly(piperidin-4-yl) = NC(C(=O)O)C1CCNCC1; Tle = CC(C)(C)[C@H](N)C(=O)O; X1 = O=S(=O)(CCOCCOCCF)CC*
# Tests used:
# [1] = in vitro stability, incubation in PBS, radio-HPLC; type: physicochemical; details: 4 hr post HPLC purification
# Method: ^18F-DEG-VS (100 μL, 1 mCi) and 30 μL of borate buffer (pH 8.5) were added into Neurotensin (100 μg, […]) or (Ac)-NT and the reaction mixture was incubated at room temperature for 5-10 min. The reaction was quenched by acetic acid (5%, 600 μL) and product was purified by radio HPLC using Method 1. The retention time of ^18F-DEG-VS-NT was 25.6 min and (^18F-DEG-VS)2-NT was not observed. […] An aliquot of the solution was then analyzed by radio-HPLC to determine the radiochemical purify. The retention time of ^18F-DEG-VS-(Ac)-NT was 28.4 min.
# NTR1 = molecular target: T1, NTR1 (Homo sapiens, UniProt P30989); experiment: competitive cell-binding assay with 125I-NT(8-13) in HT-29 cells; details: 1 hr at 37° C, n=3, read-out: IC50, inhibition of binding of 125I-NT(8-13) to NTR1 positive HT-29 cells
# T1 construct: host or cells: HT-29 human colon adenocarcinoma cells (intact, adherent)
# T1 sequence (P30989 whole entry): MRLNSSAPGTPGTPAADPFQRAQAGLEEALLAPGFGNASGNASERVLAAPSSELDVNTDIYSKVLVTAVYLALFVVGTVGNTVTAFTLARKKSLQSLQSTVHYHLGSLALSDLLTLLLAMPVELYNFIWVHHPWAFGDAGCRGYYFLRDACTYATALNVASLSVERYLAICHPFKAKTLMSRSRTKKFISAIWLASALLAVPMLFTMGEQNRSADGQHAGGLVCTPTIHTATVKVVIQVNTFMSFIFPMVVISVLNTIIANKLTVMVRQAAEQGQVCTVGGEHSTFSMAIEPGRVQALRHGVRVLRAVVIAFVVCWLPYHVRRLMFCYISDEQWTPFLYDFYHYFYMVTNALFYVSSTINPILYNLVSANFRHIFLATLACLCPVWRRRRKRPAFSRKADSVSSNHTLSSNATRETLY
# Method: The human colon adenocarcinoma cell HT29 was obtained from American Type Culture Collection and maintained at 37° C. in a humidified atmosphere containing 5% CO2 in RPMI-1640, supplemented with 1% L-glutamine, 1% penicillin/streptomycin and 10% fetal bovine serum (Life Technologies, Inc.).
# In detail, HT-29 cells were placed in 48-wells plates (1 million/0.4 mL/well) and were incubated for overnight. The cells were washed three times with binding buffer (50 mM Hepes, 125 mM NaCl, 7.5 mM KCl, 5.5 mM MgCl2, 1 mM EGTA, 5 g/L BSA, 2 mg/L chymostatin, 100 mg/L soybean trypsin inhibitor, 50 mg/L bacitracin, pH 7.4). […] After washing, cells were solubilized with 1 mol/L NaOH at 37° C. and the radioactivity was determined using a gamma counter. The best-fit 50% inhibitory concentration (IC50) values for HT-29 cells were calculated by fitting the data with nonlinear regression using GraphPad Prism (GraphPad Software). Experiments were performed on triplicate samples.
compound,measurement,setting,value
C=CS(=O)(=O)CCOCCOCC[18F] [^18F-DEG-VS],radiochemical purity after incubation in PBS,[1],more than 99%
CC(C)C[C@H](NC(=O)[C@@H](NC(=O)[C@H](Cc1ccc(O)cc1)NC(=O)[C@@H]1CCCN1C(=O)[C@H](CCCNC(=N)N)NC(=O)C(NC(=O)[C@@H]1CCCN1C(=O)C(NC(=O)[C@@H](N)CSCCS(=O)(=O)CCOCCOCCF)C1CCNCC1)C1CCN(C(=N)N)CC1)C(C)(C)C)C(=O)O (stereo partly drawn) [^19F-DEG-VS-NT] (H-C(X1)[ξGly(piperidin-4-yl)]P[ξGly(4-Pip(1-amidino))]RPY[Tle]L-OH),IC50,NTR1,2.03 ± 0.22 nM

# Reference: patent publication US10471161B2, “Vinylsulfone-based 18F-labeling compositions and methods and uses thereof” (priority 2014, dated 2019)
